Source: publication PMC8466554, “Heteroaryl-Ethylenes as New Lead Compounds in the Fight against High Priority Bacterial Strains” (Antibiotics, 2021)
Where “and” joins values, the source holds several entries; their conditions need not be identical. Identical values can stand only once. Like-named read-outs stand apart in the source and are kept apart here.

Key:
S.aureus Mu50-VISA = assay: MIC and MBC microtiter plate assay; assay type: cell-based, Staphylococcus aureus
S.aureus USA300-CAMRSA = assay: MIC and MBC microtiter plate assay; assay type: cell-based, Staphylococcus aureus
S.aureus ATCC29213-MSSA = assay: MIC and MBC microtiter plate assay; assay type: cell-based, Staphylococcus aureus
S.aureus ATCC12598-MSSA = assay: MIC and MBC microtiter plate assay, also with different inocula; assay type: cell-based, Staphylococcus aureus
[1] = test system: E. faecalis ATCC51299-VRE; assay: as above; assay type: cell-based
[2] = test system: E. faecalis ATCC29212-VSE; assay: MIC and MBC microtiter plate assay; assay type: cell-based
A. baumannii ATCC17978 = assay: MIC and MBC microtiter plate assay, also with different inocula; assay type: cell-based, Acinetobacter baumannii; conditions: A. baumannii ATCC17978
E. coli ATCC25922 = assay: as above; assay type: cell-based, Escherichia coli
P. aeruginosa ATCC27853 = assay: MIC microtiter plate assay; assay type: cell-based, Pseudomonas aeruginosa
K. pneumoniae ATCC700603 = assay: MIC microtiter plate assay; assay type: cell-based, Klebsiella pneumoniae
[3] = test system: K. pneumoniae ATCC BAA-2814; assay: MIC microtiter plate assay; assay type: cell-based, Klebsiella pneumoniae; conditions: K. pneumoniae ATCC BAA-2814 (MDR strain)
[4] = test system: Gram-positive and Gram-negative ATCC strains; assay: MIC and MBC, summary over Gram-positive and Gram-negative strains; assay type: cell-based; conditions: by MBC/MIC ratio
CaCo-2 cells = assay: MTT cytotoxicity assay; assay type: cell-based, human; conditions: 24 h of incubation relative to untreated controls
Protocol: To evaluate the biological activity of the PBn series, compounds were screened for toxicity against the colon-rectal cancer cell line CaCo-2 (ATCC HTB-37). These human cancer cells were treated with solutions of the compounds at decreasing concentrations, starting from 100 μM up to 0.01 μM. The reference compound used for these assays was 5-Fluorouracil (5-Fu), a pyrimidine analogue belonging to the family of antimetabolite. […] Briefly, human colorectal adenocarcinoma cells (CaCo-2 HTB-37^TM Colorectal Adenocarcinoma Human, American Type Culture Collection, Manassas, VA, USA) were grown in Dulbecco’s MEM (DMEM) with 10% heat-inactivated fetal bovine serum, 2 mM L-Alanyl-L-Glutamine, penicillin-streptomycin (50 units-50 μg for mL) and incubated at 37 °C in a humidified atmosphere of 5% CO2, 95% air. CaCo-2 cells were plated in 96 well pates and incubated at 37 °C. The PBn series compounds and 5-FU were prepared as a 1 mM solution in 10 mL with 0.01% DMSO. Then, 24 h after plating, cells were treated with 20 μL of each solution. Untreated cells were used as controls. […] The results were read on a multiwell scanning spectrophotometer (AF2200 plate reader, Eppendorf, Milan, Italy), using a wavelength of 569 nm.

[5] = test system: Gram-positive control strains; assay: MIC and MBC, summary over Gram-positive control strains; assay type: cell-based, S. aureus and Enterococcus spp.; conditions: over the Gram-positive control strains (S. aureus and Enterococcus spp.)
[6] = S. aureus ATCC12598, inoculum 1.00101 (1 × 10^1 CFU/mL)
[7] = S. aureus ATCC12598, inoculum 1.00102 (1 × 10^2 CFU/mL)
[8] = S. aureus ATCC12598, inoculum 1.00103 (1 × 10^3 CFU/mL)
[9] = S. aureus ATCC12598, inoculum 1.00104 (1 × 10^4 CFU/mL)
[10] = S. aureus ATCC12598, inoculum 1.00105 (1 × 10^5 CFU/mL, standard)
[11] = S. aureus ATCC12598, inoculum 1.00106 (1 × 10^6 CFU/mL)
[12] = S. aureus ATCC12598, inoculum 1.00107 (1 × 10^7 CFU/mL)
[13] = S.aureus ATCC12598-MSSA, value in brackets
[14] = E. faecalis ATCC51299-VRE, value in brackets
[15] = E. faecalis ATCC51299, inoculum 1.00101 (1 × 10^1 CFU/mL)
[16] = E. faecalis ATCC51299, inoculum 1.00102 (1 × 10^2 CFU/mL)
[17] = E. faecalis ATCC51299, inoculum 1.00103 (1 × 10^3 CFU/mL)
[18] = E. faecalis ATCC51299, inoculum 1.00104 (1 × 10^4 CFU/mL)
[19] = E. faecalis ATCC51299, inoculum 1.00105 (1 × 10^5 CFU/mL, standard)
[20] = E. faecalis ATCC51299, inoculum 1.00106 (1 × 10^6 CFU/mL)
[21] = E. faecalis ATCC51299, inoculum 1.00107 (1 × 10^7 CFU/mL)

## Clc1ccc(Cl)c(-c2ccc(/C=C/c3cc[n+](-c4ncccn4)cc3)o2)c1.F[P-](F)(F)(F)(F)F [PB5]
S.aureus Mu50-VISA
  MBC: 4 µg/mL
  MIC: 2 µg/mL
S.aureus Mu50-VISA; value in brackets
  MBC: 7.40 µM
  MIC: 3.70 µM
S.aureus USA300-CAMRSA
  MBC: 4 µg/mL
S.aureus USA300-CAMRSA; value in brackets
  MBC: 7.40 µM
  MIC: 0.93 µM
S.aureus ATCC29213-MSSA
  MBC: 4 µg/mL
  MIC: 1 µg/mL
S.aureus ATCC29213-MSSA; value in brackets
  MBC: 7.40 µM
  MIC: 1.85 µM
S.aureus ATCC12598-MSSA; [6]
  MIC: 0.03 mg/L and 0.06 μM
S.aureus ATCC12598-MSSA; [7]
  MIC: 0.03 mg/L and 0.06 μM
S.aureus ATCC12598-MSSA; [8]
  MIC: 0.06 μM and 0.03 mg/L
S.aureus ATCC12598-MSSA; [9]
  MIC: 0.06 mg/L and 0.12 μM
S.aureus ATCC12598-MSSA; [10]
  MIC: 4 mg/L and 7.40 μM
S.aureus ATCC12598-MSSA; [11]
  MIC: 4 mg/L and 7.40 μM
S.aureus ATCC12598-MSSA; [12]
  MIC: 8 mg/L and 14.81 μM
S.aureus ATCC12598-MSSA; S.aureus ATCC12598-MSSA
  MBC: 4 µg/mL
  MIC: 4 mg/L
S.aureus ATCC12598-MSSA; [13]
  MBC: 7.40 µM
  MIC: 7.40 µM
[1]; E. faecalis ATCC51299-VRE
  MBC: 128 µg/mL
  MIC: 4 mg/L
[1]; [14]
  MBC: 236.94 µM
  MIC: 7.40 µM
[1]; [15]
  MIC: 0.5 mg/L and 0.93 μM
[1]; [16]
  MIC: 1 mg/L and 1.85 μM
[1]; [17]
  MIC: 1 mg/L and 1.85 μM
[1]; [18]
  MIC: 1 mg/L and 1.85 μM
[1]; [19]
  MIC: 4 mg/L and 7.40 μM
[1]; [20]
  MIC: 4 mg/L and 7.40 μM
[1]; [21]
  MIC: 4 mg/L and 7.40 μM
[2]
  MBC: 128 µg/mL
  MIC: 4 µg/mL
[2]; value in brackets
  MBC: 236.94 µM
  MIC: 7.40 µM
A. baumannii ATCC17978
  MIC: > 128 µg/mL
A. baumannii ATCC17978; value in brackets
  MIC: > 236.94 µM
E. coli ATCC25922
  MIC: 32 µg/mL
E. coli ATCC25922; value in brackets
  MIC: 59.24 µM
P. aeruginosa ATCC27853
  MIC: > 128 µg/mL
P. aeruginosa ATCC27853; value in brackets
  MIC: > 236.94 µM
K. pneumoniae ATCC700603
  MIC: > 128 µg/mL
K. pneumoniae ATCC700603; value in brackets
  MIC: > 236.94 µM
[3]
  MIC: > 128 µg/mL
[3]; value in brackets
  MIC: > 236.94 µM
[4]
  bactericidal/bacteriostatic activity: strain-dependent bactericidal/bacteriostatic activity
CaCo-2 cells
  IC50: 3.9 µM

## C[n+]1ccc(/C=C/c2ccc(-c3cc(Cl)ccc3Cl)o2)cc1.F[P-](F)(F)(F)(F)F [PB6]
S.aureus Mu50-VISA
  MIC: 4 µg/mL
S.aureus Mu50-VISA; value in brackets
  MIC: 8.73 µM
S.aureus USA300-CAMRSA
  MIC: 4 µg/mL
S.aureus USA300-CAMRSA; value in brackets
  MIC: 8.73 µM
S.aureus ATCC29213-MSSA
  MIC: 4 µg/mL
S.aureus ATCC29213-MSSA; value in brackets
  MIC: 8.73 µM
S.aureus ATCC12598-MSSA; S.aureus ATCC12598-MSSA
  MIC: 8 mg/L
S.aureus ATCC12598-MSSA; [13]
  MIC: 17.46 µM
[1]; E. faecalis ATCC51299-VRE
  MIC: 32 mg/L
[1]; [14]
  MIC: 69.85 µM
[2]
  MIC: 32 µg/mL
[2]; value in brackets
  MIC: 69.85 µM
A. baumannii ATCC17978
  MIC: 64 µg/mL
E. coli ATCC25922
  MIC: > 128 µg/mL
E. coli ATCC25922; value in brackets
  MIC: > 279.40 µM
P. aeruginosa ATCC27853
  MIC: > 128 µg/mL
P. aeruginosa ATCC27853; value in brackets
  MIC: > 279.40 µM
K. pneumoniae ATCC700603
  MIC: > 128 µg/mL
K. pneumoniae ATCC700603; value in brackets
  MIC: > 279.40 µM
[3]
  MIC: > 128 µg/mL
[3]; value in brackets
  MIC: > 279.40 µM
[4]
  bactericidal/bacteriostatic activity: strain-dependent bactericidal/bacteriostatic activity
CaCo-2 cells
  IC50: 6.79 µM and 6.8 µM

## CC[n+]1ccc2c(c1)CCCC2=Cc1ccc(-c2ccc(Cl)cc2)o1.[I-] [PB7]
S.aureus Mu50-VISA
  MBC: 16 µg/mL
  MIC: 16 µg/mL
S.aureus Mu50-VISA; value in brackets
  MBC: 34.50 µM
  MIC: 34.50 µM
S.aureus USA300-CAMRSA
  MBC: 32 µg/mL
  MIC: 2 µg/mL
S.aureus USA300-CAMRSA; value in brackets
  MBC: 69.00 µM
  MIC: 4.31 µM
S.aureus ATCC29213-MSSA
  MBC: 4 µg/mL
  MIC: 4 µg/mL
S.aureus ATCC29213-MSSA; value in brackets
  MBC: 8.63 µM
  MIC: 8.63 µM
S.aureus ATCC12598-MSSA; [6]
  MIC: 2 mg/L and 4.31 μM
S.aureus ATCC12598-MSSA; [7]
  MIC: 4 mg/L and 8.63 μM
S.aureus ATCC12598-MSSA; [8]
  MIC: 8.63 μM and 4 mg/L
S.aureus ATCC12598-MSSA; [9]
  MIC: 4 mg/L and 8.63 μM
S.aureus ATCC12598-MSSA; [10]
  MIC: 8 mg/L and 17.25 μM
S.aureus ATCC12598-MSSA; [11]
  MIC: 8 mg/L and 17.25 μM
S.aureus ATCC12598-MSSA; [12]
  MIC: 32 mg/L and 69.00 μM
S.aureus ATCC12598-MSSA; S.aureus ATCC12598-MSSA
  MBC: 8 µg/mL
  MIC: 8 mg/L
S.aureus ATCC12598-MSSA; [13]
  MBC: 17.25 µM
  MIC: 17.25 µM
[1]; E. faecalis ATCC51299-VRE
  MBC: 128 µg/mL
  MIC: 8 mg/L
[1]; [14]
  MBC: 276.02 µM
  MIC: 17.25 µM
[1]; [15]
  MIC: 8 mg/L and 17.25 μM
[1]; [16]
  MIC: 8 mg/L and 17.25 μM
[1]; [17]
  MIC: 8 mg/L and 17.25 μM
[1]; [18]
  MIC: 8 mg/L and 17.25 μM
[1]; [19]
  MIC: 8 mg/L and 17.25 μM
[1]; [20]
  MIC: 16 mg/L and 34.50 μM
[1]; [21]
  MIC: 32 mg/L and 69.00 μM
[2]
  MBC: 128 µg/mL
  MIC: 8 µg/mL
[2]; value in brackets
  MBC: 276.02 µM
  MIC: 17.25 µM
A. baumannii ATCC17978
  MIC: 32 µg/mL
A. baumannii ATCC17978; value in brackets
  MIC: 69.00 µM
E. coli ATCC25922
  MIC: 32 µg/mL
E. coli ATCC25922; value in brackets
  MIC: 69.00 µM
P. aeruginosa ATCC27853
  MIC: > 128 µg/mL
P. aeruginosa ATCC27853; value in brackets
  MIC: > 276.02 µM
K. pneumoniae ATCC700603
  MIC: 128 µg/mL
K. pneumoniae ATCC700603; value in brackets
  MIC: 276.02 µM
[3]
  MIC: 64 µg/mL
[3]; value in brackets
  MIC: 138.01 µM
[5]
  MIC: ≤ 16 µg/mL
CaCo-2 cells
  IC50: 1.36 µM
